The assay relates to human dermal fibroblast. Nature of the assay: Fibroblast proliferation by MTT assay. Format: cell-based. The note with it: mitomycin c 10 or 25 μg/ml for 30 or 60 min; MTT at 17 hrs. As for the experimental part: The results from two different studies investigating the effect of mitomycin c on human dermal fibroblast proliferation are shown in FIGS. 5A-5B. Fibroblast cells were plated out in complete media and then treated with mitomycin c (10 μg/ml or 25 μg/ml) for 30 or 60 min. Mitomcyin c was washed out and starvation media was added. Positive controls are 10% FBS and FGF (25 ng/ml). The ODs from the blank wells were subtracted out. Proliferation was measured by MTT assay at 17 hrs.

The text below walks through data of patent publication US20200155607A1, “Enriched Cellular Compositions and Therapeutic Use” (Abraham J and Phyllis Katz Cord Blood Foundation, priority 2017, published 2020).

`CO[C@@]12[C@H](COC(N)=O)C3=C(C(=O)C(C)=C(N)C3=O)N1C[C@@H]1N[C@@H]12` [Mitomycin c, mitomycin c]: the “fibroblast proliferation (MTT)” value is listed as “appears to inhibit fibroblast proliferation”.
